Experiment: stability of crystals of the hydrochloride salt
Type: physicochemical
Procedure: Dimethylamine (approximately 10 ml) was condensed at -80° C. in a pressure tube and to this was added a solution of N-(4-azidobut-2-ynyl)-2-(R)-(1-(R)-(3,5-bis(trifluoromethyl) phenyl)ethoxy)-3-(S)-(4-fluorophenyl)morpholine (3.2 g) in dioxan (15 ml). The tube was sealed and the solution was heated at 90° C. for 16 h. The solution was evaporated to dryness and the residue chromatographed on silica gel (eluting with 5% methanol in dichloromethane containing 0.25% ammonia (SG. 0.88)) and the fractions containing the desired product were evaporated in vacuo to give the title compound. To a solution of this residue in diethyl ether was added 1M-HCl in methanol. The solution was evaporated to dryness and redissolved in diethyl ether to give crystals of the title compound hydrochloride salt m.p. 194°-198° C., [α]^22D +65.0° (C=0.5, H2 O).

Measured: stability of crystals

C[C@@H](O[C@H]1OCCN(Cc2nn[nH]c2CN(C)C)[C@H]1c1ccc(F)cc1)c1cc(C(F)(F)F)cc(C(F)(F)F)c1 [Example 12]
stable for at least five days: at 40° C. | at 40° C./75% relative humidity | at 80° C. | at 2000LUX

— patent publication US5612337A, “Substituted morpholine derivatives and their use as therapeutic agents” (Merck Sharp & Dohme Limited, priority 1993, dated 1997)
